From the supplement of paper PMC10627819

How the values were obtained:
B. subtilis 168 [1] = assay: fitness (endpoint OD595 vs no drug) (fraction); higher = more growth
How it was run: (§1)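 At 37 °C, bacteria in TSB, LB Lennox or CY were grown in 384-well plates from a starting OD595 of 0.01. OD595 was measured every 30 min for 14 h, with the first reading used as background. Fitness is the optical density at the switch to stationary phase as a fraction of the robust mean of no-drug control wells, capped at 1.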

S. aureus DSM 20231 [2] = assay: as above
How it was run: as §1

S. aureus Newman [3] = assay: as above
How it was run: as §1

S. pneumoniae D39V [4] = assay: as above
How it was run: as §1

B. subtilis 168 [5] = assay: Bliss interaction score (quartile over a dose matrix) (fitness difference); higher = more antagonism (negative = synergy)
How it was run: (§2)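 Quartiles summarise the Bliss score over technical, biological and donor/recipient replicates, where the score is observed minus expected fitness under a product model. Expected fitness uses single-drug values inferred from combination data. Fitness is OD595 at entry into stationary phase over the plate's robust no-drug mean, capped at 1.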

S. aureus DSM 20231 [6] = assay: as above
How it was run: as §2

S. aureus Newman [7] = assay: as above
How it was run: as §2

S. pneumoniae D39V [8] = assay: as above
How it was run: as §2

S. aureus DSM 20231 [9] = test system: S. aureus DSM 20231
S. aureus Newman [10] = test system: S. aureus Newman
[11] = first compound 0.0625 µg/mL, partner 0.0625 µg/mL
[12] = first compound 0.0625 µg/mL, partner 0.125 µg/mL
[13] = first compound 0.0625 µg/mL, partner 0.25 µg/mL
[14] = first compound 0.125 µg/mL, partner 0.0625 µg/mL
[15] = first compound 0.125 µg/mL, partner 0.125 µg/mL
[16] = first compound 0.125 µg/mL, partner 0.25 µg/mL
[17] = first compound 0.0312 µg/mL, partner 0.5 µg/mL, one replicate
[18] = first compound 0.0312 µg/mL, partner 1 µg/mL, one replicate
[19] = first compound 0.0625 µg/mL, partner 0.5 µg/mL, one replicate
[20] = first compound 0.0625 µg/mL, partner 1 µg/mL, one replicate
[21] = first compound 0.125 µg/mL, partner 0.5 µg/mL, one replicate
[22] = first compound 0.125 µg/mL, partner 1 µg/mL, one replicate
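Wherever Bliss interaction score (quartile over a dose matrix) is given: first quartile when negative (synergy) and third quartile when positive (antagonism).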

CCC[C@@H]1C[C@@H](C(=O)N[C@@H]([C@H]2O[C@H](SC)[C@H](O)[C@@H](O)[C@H]2O)[C@H](C)Cl)N(C)C1 [Clindamycin] + CC1=C\[C@@H](O)CC(=O)Cc2nc(co2)C(=O)N2CCC=C2C(=O)O[C@H](C(C)C)[C@H](C)/C=C/C(=O)NC\C=C\1 [Virginiamycin M1]
fitness (B. subtilis 168 [1]; first compound 0.0039 µg/mL, partner 0.0625 µg/mL, one replicate): 0.963 | fitness (B. subtilis 168 [1]; first compound 0.0039 µg/mL, partner 0.125 µg/mL, one replicate): 0.94 | fitness (B. subtilis 168 [1]; first compound 0.0039 µg/mL, partner 0.25 µg/mL, one replicate): 0.971 | fitness (B. subtilis 168 [1]; first compound 0.0078 µg/mL, partner 0.0625 µg/mL, one replicate): 0.459 | fitness (B. subtilis 168 [1]; first compound 0.0078 µg/mL, partner 0.125 µg/mL, one replicate): 0.881 | fitness (B. subtilis 168 [1]; first compound 0.0078 µg/mL, partner 0.25 µg/mL, one replicate): 0.862 | fitness (B. subtilis 168 [1]; first compound 0.0156 µg/mL, partner 0.0625 µg/mL, one replicate): 0.845 | fitness (B. subtilis 168 [1]; first compound 0.0156 µg/mL, partner 0.125 µg/mL, one replicate): 0.923 | fitness (B. subtilis 168 [1]; first compound 0.0156 µg/mL, partner 0.25 µg/mL, one replicate): 0.927 | fitness (B. subtilis 168 [1]; [11]): 0.595 | fitness (B. subtilis 168 [1]; [12]): 0.564 | fitness (B. subtilis 168 [1]; [13]): 0.59 | fitness (B. subtilis 168 [1]; [14]): 0.397 | fitness (B. subtilis 168 [1]; [15]): 0.364 | fitness (B. subtilis 168 [1]; [16]): 0.38 | fitness (B. subtilis 168 [1]; first compound 0.25 µg/mL, partner 0.0625 µg/mL): 0.361 | fitness (B. subtilis 168 [1]; first compound 0.25 µg/mL, partner 0.125 µg/mL): 0.357 | fitness (B. subtilis 168 [1]; first compound 0.25 µg/mL, partner 0.25 µg/mL): 0.366 | fitness (S. aureus DSM 20231 [2]; [17]): 0.661 | fitness (S. aureus DSM 20231 [2]; [18]): 0.597 | fitness (S. aureus DSM 20231 [2]; [11]): 0.0867 | fitness (S. aureus DSM 20231 [2]; [12]): 0.0913 | fitness (S. aureus DSM 20231 [2]; [13]): 0.131 | fitness (S. aureus DSM 20231 [2]; [19]): 0.316 | fitness (S. aureus DSM 20231 [2]; [20]): 0.275 | fitness (S. aureus DSM 20231 [2]; [14]): 0.0395 | fitness (S. aureus DSM 20231 [2]; [15]): 0.0407 | fitness (S. aureus DSM 20231 [2]; [16]): 0.0815 | fitness (S. aureus DSM 20231 [2]; [21]): 0.067 | fitness (S. aureus DSM 20231 [2]; [22]): 0.121 | fitness (S. aureus Newman [3]; first compound 0.0312 µg/mL, partner 0.0625 µg/mL): 0.601 | fitness (S. aureus Newman [3]; first compound 0.0312 µg/mL, partner 0.125 µg/mL): 0.613 | fitness (S. aureus Newman [3]; first compound 0.0312 µg/mL, partner 0.25 µg/mL): 0.622 | fitness (S. aureus Newman [3]; [17]): 0.865 | fitness (S. aureus Newman [3]; [18]): 0.892 | fitness (S. aureus Newman [3]; first compound 0.0312 µg/mL, partner 2 µg/mL, one replicate): 0.769 | fitness (S. aureus Newman [3]; [11]): 0.303 | fitness (S. aureus Newman [3]; [12]): 0.321 | fitness (S. aureus Newman [3]; [13]): 0.296 | fitness (S. aureus Newman [3]; [19]): 0.702 | fitness (S. aureus Newman [3]; [20]): 0.728 | fitness (S. aureus Newman [3]; first compound 0.0625 µg/mL, partner 2 µg/mL, one replicate): 0.595 | fitness (S. aureus Newman [3]; [14]): 0.0641 | fitness (S. aureus Newman [3]; [15]): 0.0861 | fitness (S. aureus Newman [3]; [16]): 0.0756 | fitness (S. aureus Newman [3]; [21]): 0.491 | fitness (S. aureus Newman [3]; [22]): 0.475 | fitness (S. aureus Newman [3]; first compound 0.125 µg/mL, partner 2 µg/mL, one replicate): 0.276 | fitness (S. pneumoniae D39V [4]; first compound 0.0125 µg/mL, partner 0.5 µg/mL): 0.735 | fitness (S. pneumoniae D39V [4]; first compound 0.0125 µg/mL, partner 1 µg/mL): 0.726 | fitness (S. pneumoniae D39V [4]; first compound 0.0125 µg/mL, partner 2 µg/mL): 0.669 | fitness (S. pneumoniae D39V [4]; first compound 0.015 µg/mL, partner 0.15 µg/mL, one replicate): 0.978 | fitness (S. pneumoniae D39V [4]; first compound 0.015 µg/mL, partner 0.3 µg/mL, one replicate): 0.911 | fitness (S. pneumoniae D39V [4]; first compound 0.015 µg/mL, partner 0.5 µg/mL, one replicate): 0.877 | fitness (S. pneumoniae D39V [4]; first compound 0.015 µg/mL, partner 1 µg/mL, one replicate): 0.838 | fitness (S. pneumoniae D39V [4]; first compound 0.015 µg/mL, partner 2 µg/mL): 0.806 | fitness (S. pneumoniae D39V [4]; first compound 0.025 µg/mL, partner 0.5 µg/mL): 0.496 | fitness (S. pneumoniae D39V [4]; first compound 0.025 µg/mL, partner 1 µg/mL): 0.471 | fitness (S. pneumoniae D39V [4]; first compound 0.025 µg/mL, partner 2 µg/mL): 0.428 | fitness (S. pneumoniae D39V [4]; first compound 0.03 µg/mL, partner 0.15 µg/mL, one replicate): 0.838 | fitness (S. pneumoniae D39V [4]; first compound 0.03 µg/mL, partner 0.3 µg/mL, one replicate): 0.82 | fitness (S. pneumoniae D39V [4]; first compound 0.03 µg/mL, partner 0.5 µg/mL, one replicate): 0.79 | fitness (S. pneumoniae D39V [4]; first compound 0.03 µg/mL, partner 1 µg/mL, one replicate): 0.652 | fitness (S. pneumoniae D39V [4]; first compound 0.03 µg/mL, partner 2 µg/mL): 0.699 | fitness (S. pneumoniae D39V [4]; first compound 0.05 µg/mL, partner 0.5 µg/mL): 0.243 | fitness (S. pneumoniae D39V [4]; first compound 0.05 µg/mL, partner 1 µg/mL): 0.217 | fitness (S. pneumoniae D39V [4]; first compound 0.05 µg/mL, partner 2 µg/mL): 0.15 | fitness (S. pneumoniae D39V [4]; first compound 0.06 µg/mL, partner 0.15 µg/mL, one replicate): 0.736 | fitness (S. pneumoniae D39V [4]; first compound 0.06 µg/mL, partner 0.3 µg/mL, one replicate): 0.695 | fitness (S. pneumoniae D39V [4]; first compound 0.06 µg/mL, partner 0.5 µg/mL, one replicate): 0.703 | fitness (S. pneumoniae D39V [4]; first compound 0.06 µg/mL, partner 1 µg/mL, one replicate): 0.574 | fitness (S. pneumoniae D39V [4]; first compound 0.06 µg/mL, partner 2 µg/mL): 0.624 | Bliss interaction score (B. subtilis 168 [5]): -0.0417 | Bliss interaction score (S. aureus DSM 20231 [6]): -0.0802 | Bliss interaction score (S. aureus Newman [7]): -0.0298 | Bliss interaction score (S. pneumoniae D39V [8]): -0.0639

CC(=O)OC[C@H]1O[C@@H]([S-])[C@H](OC(C)=O)[C@@H](OC(C)=O)[C@@H]1OC(C)=O.CCP(CC)CC.[Au+] [Auranofin]
MIC (S. aureus DSM 20231 [9]): 0.5 µg/mL | MIC (S. aureus Newman [10]): 0.5 µg/mL
